In publication PMC8805037, “Ready access to 7,8-dihydroindolo[2,3-d][1]benzazepine-6(5H)-one scaffold and analogues via early-stage Fischer ring-closure reaction” (Beilstein Journal of Organic Chemistry, 2022):

Target: proto-oncogene tyrosine-protein kinase Src (Homo sapiens, UniProt P12931)
Test: IC50 reported as preliminary result; assay not described in the text shown
Type: biochemical

Chain of proto-oncogene tyrosine-protein kinase Src (P12931 2-536): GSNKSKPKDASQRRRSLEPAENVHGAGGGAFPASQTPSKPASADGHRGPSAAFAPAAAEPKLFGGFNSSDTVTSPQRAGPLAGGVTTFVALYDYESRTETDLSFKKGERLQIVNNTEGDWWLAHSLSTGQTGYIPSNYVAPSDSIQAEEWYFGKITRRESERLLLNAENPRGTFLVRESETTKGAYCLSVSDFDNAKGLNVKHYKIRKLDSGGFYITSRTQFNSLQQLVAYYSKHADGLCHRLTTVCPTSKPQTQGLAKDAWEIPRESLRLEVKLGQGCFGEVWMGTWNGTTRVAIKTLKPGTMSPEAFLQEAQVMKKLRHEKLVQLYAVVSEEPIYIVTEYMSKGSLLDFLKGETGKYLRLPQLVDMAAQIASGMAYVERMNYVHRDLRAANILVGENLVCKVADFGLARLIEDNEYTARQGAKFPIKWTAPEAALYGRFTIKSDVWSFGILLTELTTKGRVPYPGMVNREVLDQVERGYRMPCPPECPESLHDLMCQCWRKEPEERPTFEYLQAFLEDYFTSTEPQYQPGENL

- IC50: 260 nM
SMILES: O=C1Cc2[nH]c3ccccc3c2-c2ccccc2N1 [C, 7,8-dihydroindolo[2,3-d][1]benzazepin-6(5H)-one]
